Reference: the NIST ThermoML archive (doi:10.1021/je800012v)
Numbers after ± are expanded uncertainties.

Assay: xn = mol fraction of the nth substance listed
Details: Liquid

CCCCCl [1-chlorobutane] + CCCCCC
mass density [kg/m3]
Details | x1 = 0.1099 | x1 = 0.212 | x1 = 0.2925 | x1 = 0.316 | x1 = 0.405 | x1 = 0.4978 | x1 = 0.5975 | x1 = 0.6869 | x1 = 0.8294 | x1 = 0.9025
283.15 K, 100 kPa | 688.16 ± 0.31 | 707.78 ± 0.3 | 724.14 ± 0.28 | 728.91 ± 0.28 | 747.8 ± 0.27 | 768.4 ± 0.25 | 791.4 ± 0.24 | 813.19 ± 0.23 | 849.71 ± 0.2 | 869.66 ± 0.19
283.15 K, 2500 kPa | 690.51 ± 0.37 | 710.17 ± 0.35 | 726.49 ± 0.33 | 731.23 ± 0.33 | 750.19 ± 0.31 | 770.77 ± 0.29 | 793.76 ± 0.27 | 815.54 ± 0.26 | 852.04 ± 0.23 | 871.97 ± 0.22
283.15 K, 5000 kPa | 692.85 ± 0.42 | 712.52 ± 0.4 | 728.83 ± 0.38 | 733.62 ± 0.38 | 752.56 ± 0.36 | 773.13 ± 0.33 | 796.11 ± 0.31 | 817.89 ± 0.28 | 854.38 ± 0.25 | 874.31 ± 0.23
283.15 K, 10000 kPa | 697.27 ± 0.53 | 716.94 ± 0.5 | 733.31 ± 0.48 | 738.08 ± 0.47 | 757.05 ± 0.44 | 777.64 ± 0.41 | 800.62 ± 0.38 | 822.39 ± 0.35 | 858.86 ± 0.3 | 878.8 ± 0.27
283.15 K, 15000 kPa | 701.44 ± 0.64 | 721.17 ± 0.61 | 737.55 ± 0.57 | 742.33 ± 0.56 | 761.32 ± 0.53 | 781.91 ± 0.49 | 804.89 ± 0.45 | 826.69 ± 0.41 | 863.18 ± 0.34 | 883.07 ± 0.31
283.15 K, 20000 kPa | 705.42 ± 0.75 | 725.18 ± 0.7 | 741.57 ± 0.67 | 746.36 ± 0.66 | 765.38 ± 0.61 | 785.99 ± 0.56 | 808.98 ± 0.51 | 830.8 ± 0.46 | 867.28 ± 0.38 | 887.19 ± 0.35
283.15 K, 25000 kPa | 709.18 ± 0.85 | 728.95 ± 0.8 | 745.4 ± 0.76 | 750.17 ± 0.74 | 769.24 ± 0.69 | 789.87 ± 0.64 | 812.89 ± 0.57 | 834.7 ± 0.52 | 871.21 ± 0.42 | 891.13 ± 0.38
283.15 K, 30000 kPa | 712.77 ± 0.95 | 732.59 ± 0.89 | 749.06 ± 0.84 | 753.86 ± 0.83 | 772.94 ± 0.77 | 793.59 ± 0.71 | 816.62 ± 0.64 | 838.47 ± 0.57 | 875.01 ± 0.46 | 894.92 ± 0.41
283.15 K, 35000 kPa | 716.2 ± 1.1 | 736.03 ± 0.98 | 752.55 ± 0.93 | 757.33 ± 0.91 | 776.47 ± 0.84 | 797.15 ± 0.77 | 820.23 ± 0.69 | 842.08 ± 0.62 | 878.63 ± 0.49 | 898.57 ± 0.44
293.15 K, 100 kPa | 679 ± 0.32 | 698.47 ± 0.3 | 714.61 ± 0.29 | 719.31 ± 0.29 | 738.08 ± 0.27 | 758.47 ± 0.26 | 781.32 ± 0.24 | 802.85 ± 0.23 | 839.13 ± 0.21 | 858.87 ± 0.2
293.15 K, 2500 kPa | 681.5 ± 0.37 | 701.01 ± 0.36 | 717.13 ± 0.34 | 721.84 ± 0.34 | 740.6 ± 0.32 | 761 ± 0.3 | 783.84 ± 0.28 | 805.38 ± 0.26 | 841.63 ± 0.24 | 861.35 ± 0.22
293.15 K, 5000 kPa | 684.03 ± 0.43 | 703.52 ± 0.41 | 719.69 ± 0.39 | 724.38 ± 0.39 | 743.13 ± 0.37 | 763.54 ± 0.34 | 786.39 ± 0.32 | 807.91 ± 0.29 | 844.15 ± 0.26 | 863.85 ± 0.24
293.15 K, 10000 kPa | 688.77 ± 0.55 | 708.3 ± 0.52 | 724.48 ± 0.49 | 729.18 ± 0.49 | 747.97 ± 0.46 | 768.33 ± 0.43 | 791.18 ± 0.39 | 812.71 ± 0.36 | 848.93 ± 0.31 | 868.63 ± 0.29
293.15 K, 15000 kPa | 693.23 ± 0.66 | 712.77 ± 0.62 | 728.99 ± 0.59 | 733.71 ± 0.58 | 752.5 ± 0.55 | 772.88 ± 0.51 | 795.72 ± 0.46 | 817.27 ± 0.42 | 853.49 ± 0.36 | 873.18 ± 0.32
293.15 K, 20000 kPa | 697.41 ± 0.77 | 717.01 ± 0.72 | 733.23 ± 0.69 | 737.99 ± 0.67 | 756.78 ± 0.63 | 777.19 ± 0.58 | 800.04 ± 0.53 | 821.6 ± 0.48 | 857.83 ± 0.4 | 877.51 ± 0.36
293.15 K, 25000 kPa | 701.41 ± 0.87 | 721.03 ± 0.82 | 737.29 ± 0.78 | 742.03 ± 0.76 | 760.9 ± 0.71 | 781.3 ± 0.66 | 804.2 ± 0.6 | 825.76 ± 0.54 | 861.98 ± 0.44 | 881.68 ± 0.4
293.15 K, 30000 kPa | 705.17 ± 0.98 | 724.84 ± 0.92 | 741.13 ± 0.87 | 745.88 ± 0.85 | 764.76 ± 0.79 | 785.2 ± 0.73 | 808.12 ± 0.66 | 829.7 ± 0.6 | 865.95 ± 0.49 | 885.66 ± 0.43
293.15 K, 35000 kPa | 708.81 ± 1.1 | 728.53 ± 1 | 744.84 ± 0.95 | 749.61 ± 0.94 | 768.53 ± 0.87 | 788.98 ± 0.8 | 811.92 ± 0.72 | 833.53 ± 0.65 | 869.81 ± 0.52 | 889.53 ± 0.46
298.15 K, 100 kPa | 674.32 ± 0.32 | 693.72 ± 0.31 | 709.76 ± 0.29 | 714.52 ± 0.29 | 733.09 ± 0.28 | 753.4 ± 0.26 | 776.16 ± 0.25 | 797.59 ± 0.23 | 833.73 ± 0.21 | 853.37 ± 0.2
298.15 K, 2500 kPa | 676.93 ± 0.38 | 696.34 ± 0.36 | 712.38 ± 0.35 | 717.11 ± 0.34 | 735.72 ± 0.32 | 756.03 ± 0.31 | 778.78 ± 0.28 | 800.23 ± 0.27 | 836.3 ± 0.24 | 855.94 ± 0.23
298.15 K, 5000 kPa | 679.56 ± 0.44 | 698.96 ± 0.42 | 715.02 ± 0.4 | 719.75 ± 0.39 | 738.37 ± 0.37 | 758.67 ± 0.35 | 781.41 ± 0.32 | 802.86 ± 0.3 | 838.91 ± 0.26 | 858.53 ± 0.25
298.15 K, 10000 kPa | 684.48 ± 0.55 | 703.92 ± 0.52 | 719.98 ± 0.5 | 724.72 ± 0.49 | 743.38 ± 0.46 | 763.66 ± 0.43 | 786.38 ± 0.4 | 807.84 ± 0.37 | 843.87 ± 0.32 | 863.49 ± 0.29
298.15 K, 15000 kPa | 689.11 ± 0.67 | 708.6 ± 0.63 | 724.66 ± 0.6 | 729.39 ± 0.59 | 748.1 ± 0.55 | 768.37 ± 0.52 | 791.12 ± 0.47 | 812.57 ± 0.43 | 848.59 ± 0.36 | 868.18 ± 0.33
298.15 K, 20000 kPa | 693.45 ± 0.78 | 712.95 ± 0.73 | 729.06 ± 0.69 | 733.8 ± 0.68 | 752.52 ± 0.64 | 772.82 ± 0.59 | 795.57 ± 0.54 | 817.04 ± 0.49 | 853.07 ± 0.41 | 872.66 ± 0.37
298.15 K, 25000 kPa | 697.55 ± 0.88 | 717.1 ± 0.83 | 733.24 ± 0.79 | 737.94 ± 0.78 | 756.74 ± 0.73 | 777.05 ± 0.67 | 799.82 ± 0.61 | 821.3 ± 0.55 | 857.35 ± 0.46 | 876.94 ± 0.41
298.15 K, 30000 kPa | 701.45 ± 0.99 | 721.06 ± 0.93 | 737.22 ± 0.88 | 741.91 ± 0.86 | 760.75 ± 0.81 | 781.09 ± 0.74 | 803.9 ± 0.67 | 825.39 ± 0.61 | 861.46 ± 0.5 | 881.06 ± 0.44
298.15 K, 35000 kPa | 705.16 ± 1.1 | 724.8 ± 1 | 741 ± 0.97 | 745.72 ± 0.95 | 764.57 ± 0.89 | 784.94 ± 0.82 | 807.76 ± 0.74 | 829.27 ± 0.66 | 865.37 ± 0.54 | 884.99 ± 0.48
303.15 K, 100 kPa | 669.66 ± 0.33 | 689.16 ± 0.31 | 704.96 ± 0.3 | 709.76 ± 0.3 | 728.25 ± 0.28 | 748.32 ± 0.27 | 770.96 ± 0.25 | 792.32 ± 0.24 | 828.52 ± 0.22 | 847.81 ± 0.21
303.15 K, 2500 kPa | 672.37 ± 0.38 | 691.9 ± 0.36 | 707.69 ± 0.35 | 712.51 ± 0.35 | 730.98 ± 0.33 | 751.02 ± 0.31 | 773.66 ± 0.29 | 795.01 ± 0.27 | 831.2 ± 0.24 | 850.48 ± 0.23
303.15 K, 5000 kPa | 675.06 ± 0.44 | 694.62 ± 0.42 | 710.41 ± 0.4 | 715.21 ± 0.4 | 733.71 ± 0.38 | 753.76 ± 0.35 | 776.4 ± 0.33 | 797.74 ± 0.31 | 833.88 ± 0.27 | 853.16 ± 0.25
303.15 K, 10000 kPa | 680.26 ± 0.56 | 699.79 ± 0.53 | 715.6 ± 0.51 | 720.44 ± 0.5 | 738.89 ± 0.47 | 759.01 ± 0.44 | 781.67 ± 0.41 | 802.98 ± 0.38 | 839.08 ± 0.32 | 858.38 ± 0.3
303.15 K, 15000 kPa | 685.01 ± 0.67 | 704.53 ± 0.64 | 720.39 ± 0.61 | 725.23 ± 0.6 | 743.69 ± 0.56 | – | – | – | – | –
